Test results from ChEMBL document CHEMBL1201862, “PubChem BioAssay data set” (2004).
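In this assay, cells in 96-well plates receive the compound at five concentrations for 48 hours. Endpoints are linearly interpolated between the surrounding concentrations. GI50 is the concentration that inhibits growth by half.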 The source made the active and inactive calls. Rule as the data show it: active = GI50 up to about 1.1 µM and inactive = higher.

How the values were obtained:
Experiment in all cases: NCI tumour cell line growth inhibition, 48 h
LOX IMVI = tested on: LOX IMVI
UO-31 = tested on: UO-31
HL-60 = tested on: HL-60
SK-MEL-2 = tested on: SK-MEL-2
M19-MEL = tested on: M19-MEL
SW-620 = tested on: SW-620
RXF 393 = tested on: RXF 393
A498 = tested on: A498
OVCAR-4 = tested on: OVCAR-4
A549 = tested on: A549
SK-MEL-28 = tested on: SK-MEL-28
HCT-116 = tested on: HCT-116
CCRF-CEM = tested on: CCRF-CEM
DMS-114 = tested on: DMS-114
HCT-15 = tested on: HCT-15
XF498 = tested on: XF498
NCI-H460 = tested on: NCI-H460
SR = tested on: SR
SK-OV-3 = tested on: SK-OV-3
NCI-H522 = tested on: NCI-H522
OVCAR-8 = tested on: OVCAR-8
UACC-257 = tested on: UACC-257
NCI-H23 = tested on: NCI-H23
U-251 = tested on: U-251
MOLT-4 = tested on: MOLT-4
TK-10 = tested on: TK-10
COLO 205 = tested on: COLO 205
KM12 = tested on: KM12
OVCAR-3 = tested on: OVCAR-3
SNB-75 = tested on: SNB-75
M14 = tested on: M14
NCI-H226 = tested on: NCI-H226
DMS-273 = tested on: DMS-273
HT-29 = tested on: HT-29
HOP-62 = tested on: HOP-62
OVCAR-5 = tested on: OVCAR-5
UACC-62 = tested on: UACC-62
CAKI-1 = tested on: CAKI-1
SNB-78 = tested on: SNB-78
EKVX = tested on: EKVX
KM-20L2 = tested on: KM-20L2
LXFL 529 = tested on: LXFL 529
HOP-18 = tested on: HOP-18
SF-539 = tested on: SF-539
SK-MEL-5 = tested on: SK-MEL-5
DLD-1 = tested on: DLD-1
HOP-92 = tested on: HOP-92
RPMI-8226 = tested on: RPMI-8226
786-0 = tested on: 786-0
SF-268 = tested on: SF-268
ACHN = tested on: ACHN
SF-295 = tested on: SF-295
SN12C = tested on: SN12C
IGROV-1 = tested on: IGROV-1
K562 = tested on: K562
Malme-3M = tested on: Malme-3M
SNB-19 = tested on: SNB-19
HCC 2998 = tested on: HCC 2998

Measured: GI50

CC(C)(C)/N=N/C(C)(C)N=C=O
> 100 µM: HCT-15
inactive: LOX IMVI > 100 µM | UO-31 > 100 µM | HL-60 > 100 µM | SK-MEL-2 > 100 µM | M19-MEL > 100 µM | SW-620 > 100 µM | RXF 393 > 100 µM | A498 > 100 µM | OVCAR-4 > 100 µM | A549 > 100 µM | SK-MEL-28 > 100 µM | HCT-116 > 100 µM | CCRF-CEM > 100 µM | DMS-114 > 100 µM | XF498 > 100 µM | NCI-H460 > 100 µM | SR > 100 µM | SK-OV-3 > 100 µM | NCI-H522 > 100 µM | OVCAR-8 > 100 µM | UACC-257 > 100 µM | NCI-H23 > 100 µM | U-251 > 100 µM | MOLT-4 > 100 µM | TK-10 > 100 µM | COLO 205 > 100 µM | KM12 > 100 µM | OVCAR-3 > 100 µM | SNB-75 > 100 µM | M14 > 100 µM | NCI-H226 > 100 µM | DMS-273 > 100 µM | HT-29 > 100 µM | HOP-62 > 100 µM | OVCAR-5 > 100 µM | UACC-62 > 100 µM | CAKI-1 > 100 µM | SNB-78 > 100 µM | EKVX 99.8 µM | KM-20L2 > 100 µM | LXFL 529 > 100 µM | HOP-18 > 100 µM | SF-539 > 100 µM | SK-MEL-5 > 100 µM | DLD-1 > 100 µM | HOP-92 > 100 µM | RPMI-8226 > 100 µM | 786-0 > 100 µM | SF-268 > 100 µM | ACHN > 100 µM | SF-295 60.1 µM | SN12C > 100 µM | IGROV-1 > 100 µM | K562 > 100 µM | Malme-3M > 100 µM | SNB-19 > 100 µM

O=C1C2c3[nH]c4ccccc4c3C3CCC(c4ccccc4)CC3C2C(=O)N1c1ccccc1 (stereo not drawn)
> 100 µM: HCT-15
inactive: LOX IMVI > 100 µM | UO-31 > 100 µM | HL-60 24.3 µM | M19-MEL > 100 µM | SW-620 > 100 µM | RXF 393 > 100 µM | A498 > 10 µM | OVCAR-4 58.5 µM | A549 > 100 µM | SK-MEL-28 > 100 µM | CCRF-CEM 44.3 µM | DMS-114 > 100 µM | XF498 > 100 µM | NCI-H460 > 100 µM | SR 92.5 µM | SK-OV-3 > 100 µM | OVCAR-8 > 100 µM | NCI-H23 > 100 µM | U-251 > 100 µM | MOLT-4 83.8 µM | TK-10 > 100 µM | COLO 205 > 100 µM | KM12 > 100 µM | OVCAR-3 > 100 µM | SNB-75 27.3 µM | M14 > 100 µM | NCI-H226 > 100 µM | DMS-273 > 100 µM | HT-29 > 100 µM | HCC 2998 > 100 µM | OVCAR-5 > 100 µM | UACC-62 > 100 µM | SNB-78 28.6 µM | EKVX > 100 µM | LXFL 529 > 100 µM | HOP-18 > 100 µM | SF-539 97.7 µM | SK-MEL-5 > 100 µM | DLD-1 > 100 µM | RPMI-8226 > 100 µM | 786-0 > 100 µM | SF-268 > 100 µM | ACHN > 100 µM | SF-295 > 100 µM | SN12C > 100 µM | IGROV-1 > 100 µM | K562 55.1 µM | Malme-3M 36.8 µM | SNB-19 > 100 µM

CC(C)CC12CC3CCC(CNC1=O)C32C (stereo not drawn)
inactive: LOX IMVI > 100 µM | UO-31 > 100 µM | HL-60 31.9 µM | SK-MEL-2 > 100 µM | M19-MEL > 100 µM | SW-620 > 100 µM | RXF 393 > 100 µM | A498 > 100 µM | OVCAR-4 > 100 µM | A549 > 100 µM | SK-MEL-28 > 100 µM | HCT-116 78.9 µM | CCRF-CEM 35.5 µM | DMS-114 78 µM | XF498 > 100 µM | NCI-H460 > 100 µM | SR 63.7 µM | SK-OV-3 > 100 µM | NCI-H522 > 100 µM | OVCAR-8 > 100 µM | UACC-257 > 100 µM | NCI-H23 > 100 µM | U-251 > 100 µM | MOLT-4 40.5 µM | TK-10 > 100 µM | COLO 205 > 100 µM | KM12 > 100 µM | OVCAR-3 > 100 µM | SNB-75 > 100 µM | M14 > 100 µM | NCI-H226 > 100 µM | DMS-273 > 100 µM | HT-29 72.9 µM | HOP-62 > 100 µM | HCC 2998 > 100 µM | OVCAR-5 96.8 µM | UACC-62 > 100 µM | CAKI-1 > 100 µM | SNB-78 > 100 µM | EKVX > 100 µM | LXFL 529 > 100 µM | HOP-18 > 100 µM | SF-539 > 100 µM | SK-MEL-5 > 100 µM | DLD-1 > 100 µM | HOP-92 > 100 µM | RPMI-8226 49.9 µM | 786-0 > 100 µM | SF-268 > 100 µM | ACHN > 100 µM | SF-295 > 100 µM | SN12C > 100 µM | IGROV-1 > 100 µM | K562 43.5 µM | Malme-3M > 100 µM | SNB-19 > 100 µM
